Data from PubChem BioAssay (NCI).
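Exposure lasted 48 hours, with cells grown in 96-well plates and compounds tested at five concentrations. At the TGI there is no net growth.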

Key:
Assay in all cases: growth of human tumour cells (NCI), 48 h
[1] = test system: SF-539 CNS
[2] = test system: HOP-62 NSCLC
[3] = test system: OVCAR-8 ovarian
[4] = test system: 786-0 renal
[5] = test system: KM12 colon
[6] = test system: MDA-MB-435
[7] = test system: TK-10 renal
[8] = test system: MALME-3M melanoma
[9] = test system: COLO 205 colon
[10] = test system: MOLT-4 leukemia
[11] = test system: HCT-15 colon
[12] = test system: OVCAR-3 ovarian
[13] = test system: NCI-H522 lung
[14] = test system: MCF7 breast
[15] = test system: SW-620 colon
[16] = test system: SN12C renal
[17] = test system: MDA-N
[18] = test system: NCI/ADR-RES ovarian
[19] = test system: NCI-H226 lung
[20] = test system: IGROV1 ovarian
[21] = test system: CAKI-1 renal
[22] = test system: RPMI-8226 leukemia
[23] = test system: UACC-62 melanoma
[24] = test system: OVCAR-4 ovarian
[25] = test system: SK-MEL-5 melanoma
[26] = test system: K-562 leukemia
[27] = test system: T-47D breast
[28] = test system: SF-295 CNS
[29] = test system: LOX IMVI melanoma
[30] = test system: SNB-75 CNS
[31] = test system: SNB-19 CNS
[32] = test system: EKVX NSCLC
[33] = test system: BT-549 breast
[34] = test system: SK-MEL-28 melanoma
[35] = test system: SR leukemia
[36] = test system: U251 CNS
[37] = test system: HCT-116 colon
[38] = test system: SF-268 CNS
[39] = test system: SK-MEL-2 melanoma
[40] = test system: HCC-2998 colon
[41] = test system: OVCAR-5 ovarian
[42] = test system: SK-OV-3 ovarian
[43] = test system: MDA-MB-231 breast
[44] = test system: HS 578T breast
[45] = test system: UO-31 renal
[46] = test system: NCI-H460 lung
[47] = test system: M14 melanoma
[48] = test system: HT29 colon
[49] = test system: NCI-H23 lung
[50] = test system: PC-3 prostate
[51] = test system: UACC-257 melanoma
[52] = test system: ACHN renal
[53] = test system: A549 NSCLC
[54] = test system: RXF 393 renal
[55] = test system: HOP-92 NSCLC
[56] = test system: CCRF-CEM leukemia
[57] = test system: HL-60(TB) leukemia
[58] = test system: DU-145 prostate

Measured: TGI

O=C(CCCNc1nc(-c2ccccc2)cs1)c1cccs1
not listed: [54] | [55] | [56] | [57] | [58]
> 100 µM: all other assays above

O=C1NC(N2CCCCC2)=N/C1=C\c1cccs1
not listed: [25] | [26] | [30] | [46]
> 100 µM: all other assays above
